Patent US8835476B2, “Synthesis of novel antimicrobials” (priority 2005, dated 2014)

How the values were obtained:
recombinant E. coli LpxA = biological target: T1, recombinant E. coli LpxA (Escherichia coli, UniProt P0A722); assay: LpxA assay: acyl-UDP-GlcNAc formation from UDP-[3H]GlcNAc, TLC; type: biochemical; conditions: for inhibition at 5000 µM: 5 mM compound, FIG. 8
T1 construct: 6xHis (C); made in house; host or cells: E. coli BL21 (pET23b)
Description: The lpxA gene was amplified from an E. coli genomic library and inserted into a pET23b vector using standard recombinant DNA methodology. The 5′ oligonucleotide for amplification of the LpxA open reading frame was 5′-[…]-3′ (SEQ ID NO. 1) and contains a BamHI restriction enzyme site upstream of the LpxA ATG start codon and the 3′ oligonucleotide was 5′-[…]-3′ (SEQ ID NO. 2) and contains a XhoI restriction enzyme site downstream of the final codon of the LpxA open reading frame. Primers were custom synthesized. The primers were designed such that digestion of the amplification product would result in addition of a C-terminal 6×-His tag in frame with the LpxA open reading frame. Specifically, E. coli genomic DNA was isolated and an amplification reaction was carried out as follows: 33 μl water, 5 μl 10× reaction buffer, 1.5 μl of 50 mM magnesium sulfate, 3 μl of 10 mM dNTPs, 3 μl of a 50 μM solution of the 5′ LpxA primer, 3 μl of a 50 μM solution of the 3′ LpxA primer, 0.5 μl of E. coli genomic DNA solution, and 1 μl of polymerase. The reaction conditions were as follows: 94° C. for 2 minutes; followed by 30 cycles of 94° C. for 30 seconds, 50° C. for 30 seconds, 68° C. for 1.5 minutes, followed by an extension at 68° C. for 7 minutes. The resulting LpxA product was separated from other DNA on a 0.8% agarose gel and isolated from the gel. The LpxA open reading frame was cloned into a topoisomerase I-activated vector and transformed into E. coli. […] The newly synthesized plasmid containing the BamHI- and XhoI-flanked LpxA open reading frame and plasmid pET23a were digested with BamHI and XhoI at 37° C. for 2 hours, DNA was separated by agarose gel electrophoresis, isolated from the gel, and ligated. Ligation reactions were transformed into chemically competent E. coli and plasmid DNA was isolated. Restriction mapping was performed to determine which plasmids contained the LpxA open reading frame. To remove the T7 epitope coding sequence from the 5′end of the LpxA open reading frame, the pET23a plasmid containing the LpxA open reading frame was digested with the restriction enzymes BamHI and XhoI and a pET23b plasmid was digested with BglII and XhoI, DNA was separated by agarose gel electrophoresis, isolated from the gel, and ligated. Ligation reactions were transformed into chemically competent E. coli and plasmid DNA was isolated. Restriction mapping was performed to assess plasmids containing the LpxA open reading frame.
A 5 ml culture of E. Coli BL21 cells expressing the LpxA-6×His plasmid was grown overnight at 37° C. in LB medium containing 50 μg/ml ampicillin and 34 μg/ml chloramphenicol, then subcultured into 500 ml of the same medium and grown at 37° C. until A600=0.6. LpxA expression was induced by addition of 0.5 mM IPTG for three hours. The cells were centrifuged at 7 000×g for 10 minutes at 4° C. and lysed using a mild, nonionic detergent. The soluble fraction containing LpxA was added to 1 ml of nickel affinity resin in a 15 ml Falcon tube; the resin was washed extensively with extraction/wash buffer (50 mM Na-phosphate (pH 7.0) and 300 mM NaCl) prior to use. This mixture was incubated on a rotating platform at low speed for 20 minutes at room temperature. The resin was centrifuged at 1000 rpm in a bench top centrifuge for 2 min, washed twice (10 min each) with 10 ml of extraction/wash buffer, resuspended in 10 ml of extraction/wash buffer, and transferred to a 10 ml polypropylene disposable protein purification column. The column was eluted with 5 ml of 50 mM Na-phosphate (pH 7.0) containing 300 mM NaCl and 150 mM imidazole, collected in 1 ml fractions. The eluate was analysed by SDS-PAGE and was visualised using a protein stain (FIG. 7 inset).
Recombinant Vibrio harveyi acyl carrier protein was prepared from a GST fusion protein as described previously (Flaman et al., 2001). […]

[1] = test system: LPS synthesis in E. coli strain D22; assay: In vivo LPS synthesis: [3H]galactose incorporation into acid-precipitable material; type: cell-based; conditions: 0.1 mM, FIG. 10B
Procedure: LpxA catalyzes the first step in the synthesis of lipid A (the hydrophobic anchor of LPS), which is essential for the growth and pathogenesis of many gram-negative bacteria. The inhibition of LpxA activity would therefore result in decreased synthesis of LPS. To measure the synthesis of LPS in vivo, the incorporation of radiolabelled galactose into acid-precipitable material was determined. The E. coli strain used for these studies was D22 (obtained from the E. coli Genetic Stock Center), which contains a mutation in the LpxC gene (lpxC101; Normark et al., 1969, J Bacteriol 97, 1334). Strains harbouring this mutation have an increased susceptibility to antibiotics, in addition to producing approximately 30% less LPS (Grundstrom et al., 1980, J Bacteriol 144, 884.). Bacteria were grown in Luria broth to early-log phase, at which point, 500 μl was transferred to a culture tube containing 1 μl of [^3H]galactose (final concentration, 0.2 mM, 20 μCi/μmol) and mixed. Cultures were incubated at 30° C. for 75 minutes with shaking at 220 rpm. Incorporation was terminated by adding 400 μl of labelled culture to 44.4 μl of 100% trichloroacetic acid (TCA, 10% final concentration) in a 1.5 ml microcentrifuge tube. Tubes were vortexed, incubated on ice for 30 minutes, then centrifuged at 14 000 rpm for 5 minutes at room temperature. The pellet was rinsed twice with 1 ml of ice-cold 10% TCA, resuspended in 50 μl of formic acid, and transferred to a scintillation vial for counting.
Compounds to be tested were dissolved in DMSO and added to the bacterial culture prior to labelling with galactose, and LPS synthesis was determined as described previously. The final concentration of DMSO (1%, v/v) had minimal effect on LPS synthesis.

T1 sequence (P0A722 whole entry): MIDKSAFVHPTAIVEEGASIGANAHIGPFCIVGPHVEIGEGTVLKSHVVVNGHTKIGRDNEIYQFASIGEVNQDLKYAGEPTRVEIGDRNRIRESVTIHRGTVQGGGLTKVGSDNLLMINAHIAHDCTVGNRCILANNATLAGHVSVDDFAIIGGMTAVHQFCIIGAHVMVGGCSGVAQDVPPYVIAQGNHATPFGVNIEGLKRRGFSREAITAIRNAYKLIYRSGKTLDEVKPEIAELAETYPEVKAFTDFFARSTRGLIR

COC(=O)c1cc(-c2nnn(C)n2)c(C(=O)OC)s1 [DNM-114, 3-(2-methyl-2H-tetrazol-5-yl)-thiophene-2,5-dicarboxylic acid dimethyl ester]
melting point: 121 to 122 °C

Cn1nnc(-c2cc(C(=O)O)sc2-c2ccc(F)cc2)n1 [DNM-123, 5-(4-fluorophenyl)-4-(2-methyl-2H-tetrazol-5-yl)thiophene-2-carboxylic acid]
inhibition at 500 µM (recombinant E. coli LpxA; 500 μM, FIG. 9): ~60%
inhibition at 5000 µM (recombinant E. coli LpxA): > 80%

CCOC(=O)c1cc(-c2nnn[nH]2)c(-c2ccc(F)cc2)s1 [DNM-124, 5-(4-Fluoro-phenyl)-4-(1H-tetrazol-5-yl)-thiophene-2-carboxylic acid ethyl ester]
inhibition at 5000 µM (recombinant E. coli LpxA): > 80%

CCOC(=O)c1cc(-c2nnn(C)n2)c(-c2ccc(F)cc2)s1 [DNM-125, ethyl 5-(4-fluorophenyl)-4-(2-methyl-2H-tetrazol-5-yl)thiophene-2-carboxylate]
melting point: 108 to 110 °C

Fc1ccc(-c2cc(-c3nnn[nH]3)c(-c3ccc(F)cc3)s2)cc1 [DNM-131, 5-(2,5-Bis(4-fluorophenyl)thiophen-3-yl)-1H-tetrazole]
inhibition at 5000 µM (recombinant E. coli LpxA): > 80%
inhibition of LpxA activity (recombinant E. coli LpxA; concentrations above 500 μM, FIG. 9): almost complete inhibition
decrease of LPS synthesis [1]: approximately 70%

Cn1nnc(-c2cc(-c3ccc(F)cc3)sc2-c2ccc(F)cc2)n1 [DNM-132, 5-(2,5-bis(4-fluorophenyl)thiophen-3-yl)-2-methyl-2H-tetrazole]
melting point: 150 to 152 °C

O=C(O)c1sc(-c2ccc(F)cc2)cc1-c1nnn[nH]1 [DNM-141, 5-(4-Fluoro-phenyl)-3-(1H-tetrazol-5-yl)-thiophene-2-carboxylic acid]
inhibition at 5000 µM (recombinant E. coli LpxA): > 80%

Cn1nnc(-c2cc(-c3ccc(F)cc3)sc2C(=O)O)n1 [DNM-142, 5-(4-Fluoro-phenyl)-3-(2-methyl-2H-tetrazol-5-yl)-thiophene-2-carboxylic acid]
inhibition at 5000 µM (recombinant E. coli LpxA): > 70%

COC(=O)c1sc(-c2ccc(F)cc2)cc1-c1nnn(C)n1 [DNM-144, 5-(4-fluoro-phenyl)-3-(2-methyl-2H-tetrazol-5-yl)-thiophene-2-carboxylic acid methyl ester]
melting point: 131.5 to 132.5 °C
